Laboratory results taken from article PMC8810776, “Gut microbiome of the largest living rodent harbors unprecedented enzymatic systems to degrade plant polysaccharides” (Nature Communications, 2022).

How the values were obtained:
Assay in all cases: substrate saturation curve, initial velocities
CapGH173 = tested on: T1, CapGH173; assay type: biochemical, Bacteroidales bacterium MAG42; settings: pH 7.5, 45 °C, 70 mM McIlvaine buffer
T1 construct: recombinant in E. coli BL21, pET28a, N-terminal 6xHis-tag cleaved with trypsin
Source text: substrate saturation curve, initial velocities on CapGH173

[1] = tested on: O=[N+]([O-])c1ccc(O[C@@H]2O[C@H](CO)[C@H](O)[C@H](O)[C@H]2O)cc1; assay type: biochemical, Bacteroides xylanisolvens; settings: pH 7.5, 45 °C
Source text: substrate saturation curve, initial velocities on BXY_26070 (CBK67650)

CapGH43_12 = tested on: T2, CapGH43_12; assay type: biochemical, Bacteroidaceae bacterium MAG57; settings: pH 6.5, 35 °C, 70 mM McIlvaine buffer
T2 construct: recombinant in E. coli BL21, pET28a, N-terminal 6xHis-tag cleaved with trypsin; gene of cluster CC102
Source text: substrate saturation curve, initial velocities on CapGH43_12

CapGH97 = tested on: T3, CapGH97; assay type: biochemical, Bacteroidaceae bacterium MAG57; settings: pH 7.0, 35 °C, 70 mM McIlvaine buffer, 5 mM CaCl2
T3 construct: recombinant in E. coli BL21, pET28a, N-terminal 6xHis-tag cleaved with trypsin; gene of cluster CC102
Source text: substrate saturation curve, initial velocities on CapGH97

How did the Km (CapGH173) turn out when `O=[N+]([O-])c1ccc(O[C@@H]2O[C@H](CO)[C@H](O)[C@H](O)[C@H]2O)cc1` [pNP-β-D-Gal, p-nitrophenyl-β-D-galactopyranoside] was run?
The Km was 570 ± 50 µM.

Which results are given for “BXY_26070 (CBK67650) (Bacteroides xylanisolvens XB1A)”?
Km [1]: 1190 ± 350 µM; kcat [1]: 29.9 ± 1.95 s⁻¹; kcat/Km [1]: 25100 M⁻¹ s⁻¹

With `O=[N+]([O-])c1ccc(O[C@@H]2O[C@@H](CO)[C@H](O)[C@H]2O)cc1` [pNP-α-L-AraF, p-nitrophenyl-α-L-arabinofuranoside] as the compound, how does the Km (CapGH43_12) read?
The Km was 2740 ± 290 µM.

`O=[N+]([O-])c1ccc(O[C@H]2O[C@H](CO)[C@H](O)[C@H](O)[C@H]2O)cc1` [pNP-α-D-Gal, p-nitrophenyl-α-D-galactopyranoside] was tested. Which Km (CapGH97) did it give?
The Km was 7700 ± 610 µM.
